The nature of data set [1]: LD50 (mouse) p.o. As to conditions: in vivo, po.
For data set [2], the system named is rhesus monkeys sensitised with haloperidol. In words: dyskinesia in rhesus monkeys sensitised with haloperidol. Format: in vivo, rhesus monkey. As to conditions: for Dyskinesia threshold dose p.o.: rhesus monkeys sensitised with haloperidol; for Dyskinesia index I:II: ratio of climbing test ED50 (I) to dyskinesia threshold dose (II). The source says: The dyskinetic effects are among the most disturbing side effects of neuroleptic drugs. These include Parkinsonian manifestations such as tremor, rigidity and akinesia but also dyskinesia in the mouth-tongue-pharynx region.
The investigation of such symptoms in an animal model is possible using rhesus monkeys sensitised with haloperidol. After being given neuroleptic drugs, which have extrapyramidal motor effects in humans, these animals show typical dyskinesia in the mouth and tongue region (according to J. Liebmann and R. Neale, Psychopharmacology 68, 25-29 (1980) modified).

Data set [3] has as its system apomorphine climbing, mouse. The data set is described as follows: apomorphine climbing test on the mouse. Format: in vivo. The conditions noted are these: after 1 h.

The values below come from patent publication US5006533A, “Certain 3-bromo-2,6-dimethoxybenzamides and pharmaceutical use thereof” (Boehringer Ingelheim GmbH, priority 1986, dated 1991).

SMILES strings stand for the structures. Where a name gives a salt, the structure may show the parent alone. Some results are limits rather than exact numbers.

In general, LD50 refers to the dose expected to kill half of the subjects tested. A higher LD50 goes with a less toxic substance. A word on the ED50: it is the dose at which the effect has come halfway, by size or by number of responders. High values mean weaker potency, low ones greater potency.

`COc1ccc(Br)c(OC)c1C(=O)NC1CC2CC(O)C(C1)N2Cc1ccc(Cl)cc1` (racemic) [X = Cl, N-[8-(4-Chlorobenzyl)-6-hydroxy-3-nortropanyl]-2,6-dimethoxy-3-bromobenzamide-hydrochloride] gave an LD50 in data set [1] of more than 1000 mg/kg. Moreover, in data set [2], the “Dyskinesia threshold dose p.o.” value came out at 30 mg/kg and the “Dyskinesia index I:II” value was 0.028. Further, the ED50 in data set [3] was found to be 0.85 mg/kg.
The molecule `COc1ccc(Br)c(OC)c1C(=O)NC1CC2CCC(C1)N2Cc1ccccc1` (stereo not drawn) [A, N-(8-benzyl-3-nortropanyl)-2,6-dimethoxy-3-bromobenzamide, reference compound] gave an LD50 in data set [1] of approximately 300 mg/kg. For the same molecule, in data set [2], the “Dyskinesia threshold dose p.o.” value amounted to 10 mg/kg and the “Dyskinesia index I:II” value was 0.18. The ED50 in data set [3] worked out at 1.8 mg/kg.
Consider `COc1ccc(Br)c(OC)c1C(=O)NC1CC2CC(O)C(C1)N2Cc1ccc(F)cc1` (stereo not drawn) [X = F, N-[8-(4-Fluorobenzyl)-6-hydroxy-3-nortropanyl]-2,6-dimethoxy-3-bromobenzamide-hydrochloride], for which, in data set [2], the “Dyskinesia threshold dose p.o.” value is reported as 8 mg/kg and the “Dyskinesia index I:II” value was found to be 0.078. Also, the ED50 in data set [3] was 0.63 mg/kg.
The molecule `COc1ccc(Br)c(OC)c1C(=O)NC1CC2CC(O)C(C1)N2Cc1ccccc1` (stereo not drawn) [X = H, N-(8-Benzyl-6-hydroxy-3-nortropanyl)-2,6-dimethoxy-3-bromobenzamide fumarate] had an LD50 in data set [1] of approximately 300 mg/kg. Also, in data set [2], the “Dyskinesia threshold dose p.o.” value is more than 15 mg/kg and the “Dyskinesia index I:II” value is recorded as less than 0.08. Moreover, the 50% effective dose (ED50) in data set [3] was 1.2 mg/kg.
